Reference: ChEMBL document CHEMBL1201862, “PubChem BioAssay data set” (2004)
Active and inactive are the calls of the source.

Tests used:
[1] = molecular target: Melanin-concentrating hormone receptor 1 (Homo sapiens, UniProt Q99705); experiment: Late-stage fluorescence-based counterscreen for antagonists of the G-protein coupled receptor 7 (GPR7): cell-based dose response assay to identify antagonists of the melanin-concentrating hormone receptor 1 (MCHR1). [Related pubchem assays (depositor defined):AID1861, AID1880, AID1952, AID2148, AID2251, AID2257, AID485339]; format: functional;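 also: stimulated with 30 nM MCH peptide agonist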
[2] = molecular target: T1, Neuropeptides B/W receptor type 1 (Homo sapiens, UniProt P48145); experiment: GPR7 antagonist potency, late-stage follow-up, cell-based, fluorescence, dose response (AID 463251); format: functional
T1 sequence (P48145 whole entry): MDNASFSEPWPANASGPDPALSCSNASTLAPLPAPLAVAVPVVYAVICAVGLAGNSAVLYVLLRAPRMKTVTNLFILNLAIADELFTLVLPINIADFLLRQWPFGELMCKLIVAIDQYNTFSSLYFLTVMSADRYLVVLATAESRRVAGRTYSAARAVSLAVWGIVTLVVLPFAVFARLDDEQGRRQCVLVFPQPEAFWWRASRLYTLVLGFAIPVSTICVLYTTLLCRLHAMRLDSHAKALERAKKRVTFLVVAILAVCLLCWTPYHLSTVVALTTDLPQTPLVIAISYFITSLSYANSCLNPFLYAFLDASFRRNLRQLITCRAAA

[3] = molecular target: Voltage-dependent T-type calcium channel subunit alpha-1H (Homo sapiens, UniProt O95180); experiment: Cav3.2 T-type channel inhibitors, cell-based, synthetic library set 1, calcium flux (AID 493022); format: functional
[4] = molecular target: Cystic fibrosis transmembrane conductance regulator/Golgi-associated PDZ and coiled-coil motif-containing protein (Homo sapiens, UniProt P13569+Q9HD26); experiment: CAL PDZ peptide-binding inhibitors, dose response, biochemical, fluorescence polarization, Cerulean-tagged CAL PDZ, cherry-picks (AID 504773)
Sequence of Cystic fibrosis transmembrane conductance regulator/Golgi-associated PDZ and coiled-coil motif-containing protein (P13569 whole entry, other chains not shown): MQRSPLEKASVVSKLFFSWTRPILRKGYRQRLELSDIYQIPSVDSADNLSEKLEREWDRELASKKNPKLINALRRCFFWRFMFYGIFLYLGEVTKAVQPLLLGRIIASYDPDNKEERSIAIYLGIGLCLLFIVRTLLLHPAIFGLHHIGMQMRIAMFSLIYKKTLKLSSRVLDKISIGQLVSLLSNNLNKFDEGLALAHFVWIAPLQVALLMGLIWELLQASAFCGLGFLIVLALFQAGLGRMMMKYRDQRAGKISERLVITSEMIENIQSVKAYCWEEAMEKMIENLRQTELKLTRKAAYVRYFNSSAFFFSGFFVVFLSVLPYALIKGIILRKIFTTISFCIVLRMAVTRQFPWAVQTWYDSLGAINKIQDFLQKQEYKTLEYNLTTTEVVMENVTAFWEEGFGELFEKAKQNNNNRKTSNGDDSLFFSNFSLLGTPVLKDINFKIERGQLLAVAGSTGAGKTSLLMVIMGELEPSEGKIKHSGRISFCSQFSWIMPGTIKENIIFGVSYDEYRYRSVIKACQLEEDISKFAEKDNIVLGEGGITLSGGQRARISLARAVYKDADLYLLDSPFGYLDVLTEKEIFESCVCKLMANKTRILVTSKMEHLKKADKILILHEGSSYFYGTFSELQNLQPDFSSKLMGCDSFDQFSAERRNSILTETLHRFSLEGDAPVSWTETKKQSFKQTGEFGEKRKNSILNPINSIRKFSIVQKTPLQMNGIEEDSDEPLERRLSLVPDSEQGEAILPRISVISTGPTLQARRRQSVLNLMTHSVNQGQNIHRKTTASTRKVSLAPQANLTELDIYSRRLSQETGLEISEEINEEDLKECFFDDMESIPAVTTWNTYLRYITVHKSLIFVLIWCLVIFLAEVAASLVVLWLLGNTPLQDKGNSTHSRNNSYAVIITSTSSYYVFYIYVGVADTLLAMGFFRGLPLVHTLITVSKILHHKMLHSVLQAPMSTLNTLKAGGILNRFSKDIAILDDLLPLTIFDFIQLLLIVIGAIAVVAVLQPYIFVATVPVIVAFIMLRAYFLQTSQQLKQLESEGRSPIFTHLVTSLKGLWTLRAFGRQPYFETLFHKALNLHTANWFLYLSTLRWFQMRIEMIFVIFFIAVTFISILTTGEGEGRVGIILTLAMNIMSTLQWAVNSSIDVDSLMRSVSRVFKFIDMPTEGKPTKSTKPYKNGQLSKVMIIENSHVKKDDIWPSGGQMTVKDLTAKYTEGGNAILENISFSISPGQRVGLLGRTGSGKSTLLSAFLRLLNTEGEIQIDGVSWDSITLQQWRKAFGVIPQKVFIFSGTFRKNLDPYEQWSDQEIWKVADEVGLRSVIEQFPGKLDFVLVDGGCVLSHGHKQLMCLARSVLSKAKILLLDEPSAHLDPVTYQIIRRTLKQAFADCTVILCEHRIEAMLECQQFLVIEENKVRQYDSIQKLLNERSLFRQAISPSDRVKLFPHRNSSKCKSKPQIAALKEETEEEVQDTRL

Sequence of Melanin-concentrating hormone receptor 1 (Q99705 whole entry): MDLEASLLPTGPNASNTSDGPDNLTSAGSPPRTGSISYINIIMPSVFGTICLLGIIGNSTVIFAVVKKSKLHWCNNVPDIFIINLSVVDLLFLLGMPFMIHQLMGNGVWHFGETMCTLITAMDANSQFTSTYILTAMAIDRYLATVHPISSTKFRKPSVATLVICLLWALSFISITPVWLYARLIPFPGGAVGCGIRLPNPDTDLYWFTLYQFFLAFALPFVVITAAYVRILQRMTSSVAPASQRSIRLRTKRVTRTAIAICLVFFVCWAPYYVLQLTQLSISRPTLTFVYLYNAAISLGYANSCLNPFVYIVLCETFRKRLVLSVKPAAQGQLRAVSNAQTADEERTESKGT
Sequence of Voltage-dependent T-type calcium channel subunit alpha-1H (O95180 whole entry): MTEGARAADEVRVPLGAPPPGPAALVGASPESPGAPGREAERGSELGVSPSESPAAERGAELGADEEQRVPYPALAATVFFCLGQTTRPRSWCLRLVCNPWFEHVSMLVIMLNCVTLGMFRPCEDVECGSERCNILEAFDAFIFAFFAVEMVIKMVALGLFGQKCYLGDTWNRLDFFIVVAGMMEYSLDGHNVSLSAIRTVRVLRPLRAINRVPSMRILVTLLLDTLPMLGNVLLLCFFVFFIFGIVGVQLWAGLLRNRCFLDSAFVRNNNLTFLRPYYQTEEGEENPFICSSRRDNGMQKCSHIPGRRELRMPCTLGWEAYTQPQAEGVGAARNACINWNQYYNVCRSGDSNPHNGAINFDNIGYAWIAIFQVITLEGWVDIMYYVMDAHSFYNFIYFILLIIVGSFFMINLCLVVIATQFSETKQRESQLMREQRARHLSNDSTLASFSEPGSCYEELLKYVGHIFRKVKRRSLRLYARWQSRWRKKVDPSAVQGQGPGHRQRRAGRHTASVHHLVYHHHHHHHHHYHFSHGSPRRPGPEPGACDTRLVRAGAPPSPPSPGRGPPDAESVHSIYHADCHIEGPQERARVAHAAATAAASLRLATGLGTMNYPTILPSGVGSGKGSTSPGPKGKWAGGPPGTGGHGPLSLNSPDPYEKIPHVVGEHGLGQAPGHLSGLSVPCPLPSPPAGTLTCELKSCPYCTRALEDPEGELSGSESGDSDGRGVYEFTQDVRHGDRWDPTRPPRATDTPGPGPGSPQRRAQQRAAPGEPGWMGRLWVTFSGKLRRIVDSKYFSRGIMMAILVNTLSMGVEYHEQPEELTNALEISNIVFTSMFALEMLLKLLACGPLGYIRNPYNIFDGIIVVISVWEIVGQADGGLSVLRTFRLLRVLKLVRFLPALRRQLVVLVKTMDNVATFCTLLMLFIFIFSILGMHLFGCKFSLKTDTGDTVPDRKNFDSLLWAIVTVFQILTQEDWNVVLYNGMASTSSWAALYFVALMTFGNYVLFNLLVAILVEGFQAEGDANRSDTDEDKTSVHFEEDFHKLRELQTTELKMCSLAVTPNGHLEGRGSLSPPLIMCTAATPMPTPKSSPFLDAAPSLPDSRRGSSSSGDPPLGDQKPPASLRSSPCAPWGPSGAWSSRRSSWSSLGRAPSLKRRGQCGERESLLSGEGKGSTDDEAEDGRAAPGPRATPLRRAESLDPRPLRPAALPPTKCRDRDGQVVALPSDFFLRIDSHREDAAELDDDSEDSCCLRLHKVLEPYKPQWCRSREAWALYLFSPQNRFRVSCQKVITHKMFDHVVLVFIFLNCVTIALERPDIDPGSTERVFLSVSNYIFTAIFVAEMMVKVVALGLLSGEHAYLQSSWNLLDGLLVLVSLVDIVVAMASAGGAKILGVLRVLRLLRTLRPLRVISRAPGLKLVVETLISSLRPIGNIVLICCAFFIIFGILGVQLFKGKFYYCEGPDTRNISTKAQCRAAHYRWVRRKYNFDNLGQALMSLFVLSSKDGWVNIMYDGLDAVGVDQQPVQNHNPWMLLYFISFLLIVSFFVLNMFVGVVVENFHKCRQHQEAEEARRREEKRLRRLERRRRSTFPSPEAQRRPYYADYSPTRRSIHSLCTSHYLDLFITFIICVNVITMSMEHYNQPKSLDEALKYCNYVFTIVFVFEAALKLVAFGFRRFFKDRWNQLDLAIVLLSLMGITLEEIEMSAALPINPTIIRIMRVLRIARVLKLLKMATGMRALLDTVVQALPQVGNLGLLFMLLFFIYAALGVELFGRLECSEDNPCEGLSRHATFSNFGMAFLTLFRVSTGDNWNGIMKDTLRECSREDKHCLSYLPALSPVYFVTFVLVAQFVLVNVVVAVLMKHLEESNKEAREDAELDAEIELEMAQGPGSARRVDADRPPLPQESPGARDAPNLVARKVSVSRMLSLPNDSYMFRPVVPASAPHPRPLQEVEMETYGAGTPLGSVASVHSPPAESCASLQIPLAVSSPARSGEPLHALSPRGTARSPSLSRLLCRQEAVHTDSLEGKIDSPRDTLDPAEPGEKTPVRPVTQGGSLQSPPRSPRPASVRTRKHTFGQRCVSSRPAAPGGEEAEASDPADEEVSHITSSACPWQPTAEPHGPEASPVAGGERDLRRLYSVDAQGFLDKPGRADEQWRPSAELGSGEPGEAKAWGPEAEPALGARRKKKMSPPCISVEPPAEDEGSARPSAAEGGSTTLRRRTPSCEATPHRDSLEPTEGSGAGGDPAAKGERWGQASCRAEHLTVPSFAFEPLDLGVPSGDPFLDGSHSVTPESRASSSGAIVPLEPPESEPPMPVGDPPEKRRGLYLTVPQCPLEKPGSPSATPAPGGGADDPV

## COc1ccc(Oc2c(Cl)cnn(-c3cc(C(F)(F)F)cc(C(F)(F)F)c3)c2=O)cc1
[1]
  IC50: 1.5 µM (active)
[2]
  IC50: 1.2 µM (active)

## O=C(COc1ccccc1Cl)Nc1nnc(-c2ccc3c(c2)CCCC3)o1
[3]
  EC50: 10 µM (active)

## Cc1sc(NC(=O)c2ccco2)c(C(Nc2ccccn2)c2ccccc2)c1C (centres undefined)
[4]
  AC50: 60.1 µM (active)
